Assay results taken from the NIST ThermoML archive (doi:10.1016/j.jct.2008.01.017).

Key:
[1] = excess molar enthalpy (molar enthalpy of mixing); xn = mol fraction of the nth substance listed; details: 101 kPa, Liquid, Flow calorimetry
[2] = 293.15 K, 101.33 kPa, Liquid
[3] = refractive index (Na D-line) (dimensionless); details: 293.15 K; 101.33 kPa; Liquid; Standard Abbe refractometry

CCCCCCCCO [octan-1-ol] + CC#N
[1]
Details	excess molar enthalpy [kcal/mol]
298.15 K, x1 = 0.0476	0.161
298.15 K, x1 = 0.0971	0.282
298.15 K, x1 = 0.1479	0.375
298.15 K, x1 = 0.1998	0.449
298.15 K, x1 = 0.2521	0.502
298.15 K, x1 = 0.3044	0.541
298.15 K, x1 = 0.3562	0.566
298.15 K, x1 = 0.407	0.58
298.15 K, x1 = 0.471	0.583
298.15 K, x1 = 0.5316	0.565
298.15 K, x1 = 0.5882	0.539
298.15 K, x1 = 0.6879	0.459
298.15 K, x1 = 0.7685	0.369
298.15 K, x1 = 0.802	0.328
298.15 K, x1 = 0.8567	0.245
298.15 K, x1 = 0.8975	0.176
298.15 K, x1 = 0.9375	0.117
313.15 K, x1 = 0.063	0.205
313.15 K, x1 = 0.1288	0.361
313.15 K, x1 = 0.1966	0.487
313.15 K, x1 = 0.2652	0.568
313.15 K, x1 = 0.3335	0.614
313.15 K, x1 = 0.4003	0.635
313.15 K, x1 = 0.4647	0.635
313.15 K, x1 = 0.5259	0.62
313.15 K, x1 = 0.583	0.592
313.15 K, x1 = 0.6357	0.551
313.15 K, x1 = 0.6837	0.501
313.15 K, x1 = 0.7268	0.452
313.15 K, x1 = 0.7653	0.404
313.15 K, x1 = 0.7992	0.359
313.15 K, x1 = 0.8288	0.315
313.15 K, x1 = 0.8762	0.236
313.15 K, x1 = 0.9349	0.124
323.15 K, x1 = 0.0633	0.218
323.15 K, x1 = 0.1295	0.397
323.15 K, x1 = 0.1975	0.541
323.15 K, x1 = 0.2663	0.613
323.15 K, x1 = 0.3347	0.655
323.15 K, x1 = 0.4017	0.672
323.15 K, x1 = 0.4661	0.669
323.15 K, x1 = 0.5273	0.651
323.15 K, x1 = 0.5844	0.619
323.15 K, x1 = 0.637	0.575
323.15 K, x1 = 0.6849	0.529
323.15 K, x1 = 0.7279	0.478
323.15 K, x1 = 0.7663	0.428
323.15 K, x1 = 0.8001	0.383
323.15 K, x1 = 0.8296	0.335
323.15 K, x1 = 0.8768	0.248
323.15 K, x1 = 0.9352	0.131

CCCCCCCO [heptan-1-ol]
Details	mass density [kg/m3]	refractive index
[2]	822.3	–
[3]	–	1.4245

CCCCCCCO [heptan-1-ol] + CC#N
[1]
Details	excess molar enthalpy [kcal/mol]
298.15 K, x1 = 0.0529	0.141
298.15 K, x1 = 0.1128	0.261
298.15 K, x1 = 0.1738	0.365
298.15 K, x1 = 0.2352	0.435
298.15 K, x1 = 0.2962	0.485
298.15 K, x1 = 0.3561	0.516
298.15 K, x1 = 0.4143	0.53
298.15 K, x1 = 0.4701	0.532
298.15 K, x1 = 0.5231	0.523
298.15 K, x1 = 0.573	0.505
298.15 K, x1 = 0.6194	0.479
298.15 K, x1 = 0.6623	0.449
298.15 K, x1 = 0.7015	0.416
298.15 K, x1 = 0.7692	0.349
298.15 K, x1 = 0.8038	0.303
298.15 K, x1 = 0.8621	0.221
298.15 K, x1 = 0.9271	0.116
313.15 K, x1 = 0.0698	0.186
313.15 K, x1 = 0.1417	0.326
313.15 K, x1 = 0.2146	0.43
313.15 K, x1 = 0.2872	0.504
313.15 K, x1 = 0.3584	0.545
313.15 K, x1 = 0.427	0.56
313.15 K, x1 = 0.4923	0.561
313.15 K, x1 = 0.5533	0.548
313.15 K, x1 = 0.6096	0.52
313.15 K, x1 = 0.6608	0.481
313.15 K, x1 = 0.707	0.438
313.15 K, x1 = 0.7482	0.392
313.15 K, x1 = 0.7845	0.348
313.15 K, x1 = 0.8163	0.304
313.15 K, x1 = 0.8439	0.26
313.15 K, x1 = 0.8642	0.228
313.15 K, x1 = 0.9283	0.121
323.15 K, x1 = 0.0704	0.19
323.15 K, x1 = 0.1429	0.348
323.15 K, x1 = 0.2161	0.469
323.15 K, x1 = 0.2891	0.541
323.15 K, x1 = 0.3605	0.574
323.15 K, x1 = 0.4293	0.585
323.15 K, x1 = 0.4946	0.58
323.15 K, x1 = 0.5555	0.565
323.15 K, x1 = 0.6117	0.54
323.15 K, x1 = 0.6629	0.498
323.15 K, x1 = 0.7089	0.452
323.15 K, x1 = 0.7499	0.404
323.15 K, x1 = 0.786	0.359
323.15 K, x1 = 0.8177	0.315
323.15 K, x1 = 0.8451	0.273
323.15 K, x1 = 0.8642	0.242
323.15 K, x1 = 0.9283	0.133

CCCCCCCCO [octan-1-ol]
Details	mass density [kg/m3]	refractive index
[2]	825.8	–
[3]	–	1.4293

CC#N [acetonitrile]
Details	mass density [kg/m3]
[2], Vibrating tube method	784.6

Details	refractive index
[3]	1.3441
